This experiment concerns Arabidopsis seedlings. The experiment is described as follows: Hormone-independent shoot regeneration of Arabidopsis seedlings after chemical induction of the transformed constructs. It is filed as in vivo, Arabidopsis thaliana. How it is done:
For plant transformation, vector SHOOT REGENERATION was introduced into A. tumefaciens (strain C58C1.pMP90) by electroporation. Transformant A. tumefaciens were used to transform A. thaliana plants of the Col-0 ecotype by the floral dip method (Clough, 1998).
Seeds were surface sterilised by chlorin gas by the vapor sterilisation method (Lindsey, 2017). After sterilisation, the seeds were suspended in a 0.1% agarose solution, before being stratified at 4° C. in darkness for 48 hours. Subsequently, the seeds were plated on germination medium under sterile conditions. The seeds were plated on a fine nylon mesh (100 μm), which allowed for the contact with the medium without allowing seedlings to penetrate the mesh. The plates with the seedlings were sealed with surgical tape (3M, Micropore) to prevent desiccation. The plates were placed in upright position in a growth chamber (22° C., 120-150 μmol/m^2s with 16 h light/8 h dark photoperiodlight). The plates were left to grow in these circumstances for 5 days.
After 5 days of growth, the seedlings were transplanted under sterile conditions by transporting the mesh on which they were growing from the germination medium to the induction medium. The plates with the seedlings were sealed with surgical tape (3M, Micropore) to prevent desiccation. The plates were placed back in the growth chamber in upright position. The plates were left to grow in this condition for 14 days. Shoots started appearing in the second week of induction.
Plants transformed with the SHOOT REGENERATION vector (XVE-transactivated AmiRBR and AtWIND1; GVG-transactivated AtSHR, AtSCR, AtPLT1, AtPLT4, AtPLT5 and AtWOX5) were grown on medium containing 10 μM 17β-estradiol (EST: activation of XVE) and/or 10 μM dexamethasone (DEX: activation of GVG).
Plants transformed with the SHOOT REGENERATION-2 vector (XVE-transactivated AtWIND1; GVG-transactivated AtPLT1 and AtWOX5) were grown on medium containing 10 μM 17β-estradiol (EST: activation of XVE) and/or 10 μM dexamethasone (DEX: activation of GVG).

Where [1] appears, read: inducer on wild-type (non-transformed) seedlings, percentage of total number of seedlings tested.

On to `C[C@@H]1C[C@H]2[C@@H]3CCC4=CC(=O)C=C[C@]4(C)[C@@]3(F)[C@@H](O)C[C@]2(C)[C@@]1(O)C(=O)CO` [DEX, dexamethasone], for which the green callus (inducer on wild-type (non-transformed) seedlings, percentage of the numbers with callus formation) is listed as 0%. Moreover, the shoot regeneration (inducer on wild-type (non-transformed) seedlings, percentage of the numbers with green callus formation) worked out at 0%. Under setting [1], this compound registered a callus of 0%, a green callus of 0%, a root growth arrest of 0% and a shoot regeneration of 0%.

With `C[C@]12CC[C@@H]3c4ccc(O)cc4CC[C@H]3[C@@H]1CC[C@@H]2O` [estradiol, 17β-estradiol], the “root growth arrest, callus formation or shoot regeneration” value (roots of non-transformed Arabidopsis, induced with 10 μM, result in words) is “never showed any root growth arrest, callus formation or shoot regeneration”.

For the origin of these results see patent US20210054393A1, “GENES FOR HORMONE-FREE PLANT REGENERATION” (priority 2018, published 2021).
